Data from PMC5459446, “A phase I study of single-agent perifosine for recurrent or refractory pediatric CNS and solid tumors” (PLoS ONE, 2017).
Counter-ions that a name gives are not always drawn.

Tests used:
mTOR pathway / autophagy = test system: mTOR pathway / autophagy; design: method as in PMID 19920197; settings: doses as low as; cited from earlier work
[1] = test system: pediatric patients with recurrent or refractory CNS and solid tumors; assay: Phase I dose-escalation toxicity assessment (Common Toxicity Criteria v3.0, DLT, MTD); format: in vivo
Method: This was a standard 3+3 phase I dose escalation study (NCT00776867) investigating 5 dose levels. Perifosine was only available as 50-mg tablets, complicating the phase I dose escalation scheme. A loading dose was administered on day 1 and subsequent maintenance doses were administered every 1 to 4 days, depending on dose level and BSA, with the goal of achieving dose levels of 25, 50, 75, 100, and 125 mg/m^2/day (Tables 1–5). This dosing scheme, incorporating drug administration as infrequently as every 4 days, was made possible by perifosine’s long half-life. Treatment was continued until disease progression, intolerable toxicity, DLT, or death was encountered. Subjects experiencing DLT but with evidence of clinical benefit at dose level 1, 2, or 3 were eligible to remain on study with a dose level reduction. […]
Toxicity was assessed according to the Common Toxicity Criteria (version 3.0) of the National Cancer Institute, National Institutes of Health. DLT was defined as (1) any non-hematological toxicity grade ≥ 3 [except for grade 3 nausea, vomiting, and diarrhea that could be controlled within 24 hours with supportive care measures]; (2) grade 4 neutropenia on 2 consecutive blood counts drawn at least 72 hours apart; (3) grade 4 febrile neutropenia [ANC < 1000/μL and fever ≥ 38.5°C] or grade ≥ 3 documented infection with ANC < 1000/μL, or; (4) a platelet count < 25,000/μL. Grade ≥ 3 decrease in hemoglobin that could be corrected to at least 8 g/dl (grade 2) by transfusion of red blood cells, grade ≥ 3 leukopenia in the absence of dose-limiting neutropenia, and grade ≥ 3 lymphopenia were not considered DLTs.
The DLT assessment period was the first 28-day cycle. If therapy was discontinued during the first cycle for reasons other than toxicity, an additional subject could be enrolled at that dose level to ensure adequate evaluation of toxicity. No intra-patient dose escalation was permitted.

[2] = 23 patients, all dose levels, at least possibly related
[3] = 23 patients, all dose levels, at least possibly related, listed as Perifosine

Q: With `CCCCCCCCCCCCCCCCCCOP(=O)([O-])OC1CC[N+](C)(C)CC1` [perifosine, 1,1-Dimethyl-4-[[(octadecyloxy)hydroxyphosphinyl]oxy]-piperidinium inner salt] as the compound, how does the “Lowest dose degrading mTOR pathway components and inducing autophagy” value (mTOR pathway / autophagy) read?
A: 5 µM

Q: What about the MTD ([1]; 5 dose levels, 25 to 125 mg/m2/day) of the same compound?
A: not defined

Q: What about the “ALT, Any Grade, %” value [1, 2] of the same compound?
A: 39.13%

Q: What about the “ALT, Any Grade, No.” value [1, 2] of the same compound?
A: 9

Q: What about the “ALT, Grade 3 or 4, %” value [1, 2] of the same compound?
A: 0.00%

Q: What about the “ALT, Grade 3 or 4, No.” value [1, 2] of the same compound?
A: 0

Q: What about the “AST, Any Grade, %” value [1, 2] of the same compound?
A: 26.09%

Q: What about the “AST, Any Grade, No.” value [1, 2] of the same compound?
A: 6

Q: And the “AST, Grade 3 or 4, %” value [1, 2]?
A: 0.00%

Q: What about the “Decreased hemoglobin, Grade 3 or 4, %” value [1, 2] of the same compound?
A: 0.00%

Q: What about the “Decreased hemoglobin, Grade 3 or 4, No.” value [1, 2] of the same compound?
A: 0

Q: What about the “Decreased leukocytes, Any Grade, %” value [1, 2] of the same compound?
A: 47.83%

Q: What about the “Decreased leukocytes, Any Grade, No.” value [1, 2] of the same compound?
A: 11

Q: And the “Decreased leukocytes, Grade 3 or 4, %” value [1, 2]?
A: 0.00%

Q: What about the “Decreased leukocytes, Grade 3 or 4, No.” value [1, 2] of the same compound?
A: 0

Q: And the “Decreased neutrophils (neutropenia), Grade 3 or 4, %” value [1, 2]?
A: 8.7%

Q: And the “Decreased neutrophils, Any Grade, %” value [1, 2]?
A: 26.09%

Q: What about the “Decreased neutrophils, Any Grade, No.” value [1, 2] of the same compound?
A: 6

Q: And the “Decreased neutrophils, Grade 3 or 4, No.” value [1, 2]?
A: 2

Q: And the “Decreased platelets, Any Grade, %” value [1, 2]?
A: 21.74%

Q: What about the “Decreased platelets, Any Grade, No.” value [1, 2] of the same compound?
A: 5

Q: And the “Decreased platelets, Grade 3 or 4, %” value [1, 2]?
A: 0.00%

Q: What about the “Decreased platelets, Grade 3 or 4, No.” value [1, 2] of the same compound?
A: 0

Q: What about the “Diarrhea, Any Grade, %” value [1, 2] of the same compound?
A: 43.48%

Q: What about the “Diarrhea, Any Grade, No.” value [1, 2] of the same compound?
A: 10

Q: And the “Diarrhea, Grade 3 or 4, %” value [1, 2]?
A: 0.00%

Q: And the “Diarrhea, Grade 3 or 4, No.” value [1, 2]?
A: 0

Q: What about the “Fatigue, Any Grade, %” value [1, 2] of the same compound?
A: 65.22%

Q: And the “Fatigue, Any Grade, No.” value [1, 2]?
A: 15

Q: And the “Fatigue, Grade 3 or 4, %” value [1, 2]?
A: 4.35%

Q: What about the “Fatigue, Grade 3 or 4, No.” value [1, 2] of the same compound?
A: 1

Q: What about the “Fever, Any Grade, %” value [1, 2] of the same compound?
A: 21.74%

Q: And the “Fever, Any Grade, No.” value [1, 2]?
A: 5

Q: What about the “Fever, Grade 3 or 4, %” value [1, 2] of the same compound?
A: 4.35%

Q: And the “Fever, Grade 3 or 4, No.” value [1, 2]?
A: 1

Q: And the “Flatulence, Any Grade, %” value [1, 2]?
A: 13.04%

Q: What about the “Flatulence, Any Grade, No.” value [1, 2] of the same compound?
A: 3

Q: And the “Flatulence, Grade 3 or 4, %” value [1, 2]?
A: 0.00%

Q: And the “Flatulence, Grade 3 or 4, No.” value [1, 2]?
A: 0

Q: What about the “Hyperglycemia, Any Grade, %” value [1, 2] of the same compound?
A: 60.87%

Q: What about the “Hyperglycemia, Any Grade, No.” value [1, 2] of the same compound?
A: 14

Q: What about the “Hyperglycemia, Grade 3 or 4, %” value [1, 2] of the same compound?
A: 4.35%

Q: And the “Hyperglycemia, Grade 3 or 4, No.” value [1, 2]?
A: 1

Q: And the “Hyperuricemia, Any Grade, %” value [1, 2]?
A: 4.35%

Q: What about the “Hyperuricemia, Any Grade, No.” value [1, 2] of the same compound?
A: 1

Q: What about the “Hyperuricemia, Grade 3 or 4, %” value [1, 2] of the same compound?
A: 4.35%

Q: And the “Hyperuricemia, Grade 3 or 4, No.” value [1, 2]?
A: 1

Q: What about the “Hypocalcemia, Any Grade, %” value [1, 2] of the same compound?
A: 21.74%

Q: What about the “Hypocalcemia, Any Grade, No.” value [1, 2] of the same compound?
A: 5

Q: And the “Hypocalcemia, Grade 3 or 4, %” value [1, 2]?
A: 0.00%

Q: What about the “Hypocalcemia, Grade 3 or 4, No.” value [1, 2] of the same compound?
A: 0

Q: What about the “Hypokalemia, Any Grade, %” value [1, 2] of the same compound?
A: 21.74%

Q: And the “Hypokalemia, Any Grade, No.” value [1, 2]?
A: 5

Q: What about the “Hypokalemia, Grade 3 or 4, %” value [1, 2] of the same compound?
A: 0.00%

Q: And the “Hypokalemia, Grade 3 or 4, No.” value [1, 2]?
A: 0

Q: What about the “Hypomagnesemia, Any Grade, %” value [1, 2] of the same compound?
A: 13.04%

Q: And the “Hypomagnesemia, Any Grade, No.” value [1, 2]?
A: 3

Q: And the “Hypomagnesemia, Grade 3 or 4, %” value [1, 2]?
A: 0.00%

Q: What about the “Hypomagnesemia, Grade 3 or 4, No.” value [1, 2] of the same compound?
A: 0

Q: And the “Hyponatremia, Any Grade, %” value [1, 2]?
A: 21.74%

Q: And the “Hyponatremia, Any Grade, No.” value [1, 2]?
A: 5

Q: What about the “Hyponatremia, Grade 3 or 4, %” value [1, 2] of the same compound?
A: 0.00%

Q: What about the “Hyponatremia, Grade 3 or 4, No.” value [1, 2] of the same compound?
A: 0

Q: What about the “Hypophosphatemia, Any Grade, %” value [1, 2] of the same compound?
A: 13.04%

Q: And the “Hypophosphatemia, Any Grade, No.” value [1, 2]?
A: 3

Q: And the “Hypophosphatemia, Grade 3 or 4, %” value [1, 2]?
A: 0.00%

Q: And the “Hypophosphatemia, Grade 3 or 4, No.” value [1, 2]?
A: 0

Q: What about the “Infection URI, Any Grade, %” value [1, 2] of the same compound?
A: 17.39%

Q: And the “Infection URI, Any Grade, No.” value [1, 2]?
A: 4

Q: And the “Infection URI, Grade 3 or 4, %” value [1, 2]?
A: 0.00%

Q: What about the “Infection URI, Grade 3 or 4, No.” value [1, 2] of the same compound?
A: 0

Q: What about the “Infection—catheter related, Any Grade, %” value [1, 2] of the same compound?
A: 4.35%

Q: And the “Infection—catheter related, Any Grade, No.” value [1, 2]?
A: 1

Q: And the “Infection—catheter related, Grade 3 or 4, %” value [1, 2]?
A: 4.35%

Q: What about the “Infection—catheter related, Grade 3 or 4, No.” value [1, 2] of the same compound?
A: 1

Q: And the “Lymphopenia, Any Grade, %” value [1, 2]?
A: 17.39%

Q: And the “Lymphopenia, Any Grade, No.” value [1, 2]?
A: 4

Q: And the “Lymphopenia, Grade 3 or 4, %” value [1, 2]?
A: 0.00%

Q: What about the “Lymphopenia, Grade 3 or 4, No.” value [1, 2] of the same compound?
A: 0

Q: What about the “Nausea, Any Grade, %” value [1, 2] of the same compound?
A: 65.22%

Q: What about the “Nausea, Any Grade, No.” value [1, 2] of the same compound?
A: 15

Q: What about the “Nausea, Grade 3 or 4, %” value [1, 2] of the same compound?
A: 0.00%

Q: What about the “Nausea, Grade 3 or 4, No.” value [1, 2] of the same compound?
A: 0

Q: And the “Pain—abdomen NOS, Any Grade, %” value [1, 2]?
A: 21.74%

Q: What about the “Pain—abdomen NOS, Any Grade, No.” value [1, 2] of the same compound?
A: 5

Q: What about the “Pain—abdomen NOS, Grade 3 or 4, %” value [1, 2] of the same compound?
A: 0.00%

Q: What about the “Pain—abdomen NOS, Grade 3 or 4, No.” value [1, 2] of the same compound?
A: 0

Q: What about the “Pain—stomach, Any Grade, %” value [1, 2] of the same compound?
A: 13.04%

Q: What about the “Pain—stomach, Any Grade, No.” value [1, 2] of the same compound?
A: 3

Q: And the “Pain—stomach, Grade 3 or 4, %” value [1, 2]?
A: 0.00%

Q: What about the “Pain—stomach, Grade 3 or 4, No.” value [1, 2] of the same compound?
A: 0

Q: What about the “Vomiting, Any Grade, %” value [1, 2] of the same compound?
A: 56.52%

Q: And the “Vomiting, Any Grade, No.” value [1, 2]?
A: 13

Q: And the “Vomiting, Grade 3 or 4, %” value [1, 2]?
A: 0.00%

Q: And the “Vomiting, Grade 3 or 4, No.” value [1, 2]?
A: 0

Q: And the “Decreased leukocytes, Any Grade, %” value [1, 3]?
A: 47.8%

Q: And the “Fatigue, Any Grade, %” value [1, 3]?
A: 65.2%

Q: And the “Hyperglycemia, Any Grade, %” value [1, 3]?
A: 60.9%

Q: What about the “Nausea, Any Grade, %” value [1, 3] of the same compound?
A: 65.2%

Q: What about the “Vomiting, Any Grade, %” value [1, 3] of the same compound?
A: 56.5%

Q: What about the “Number of DLTs” value ([1]; grade 4 hyperuricemia at dose level 4, 23 patients, 5 dose levels) of the same compound?
A: one

Q: And the “AST, Grade 3 or 4, No.” value ([1]; human, in vivo)?
A: 0

Q: And the “Anorexia, Any Grade, %” value ([1]; human, in vivo)?
A: 30.43%

Q: And the “Anorexia, Any Grade, No.” value ([1]; human, in vivo)?
A: 7

Q: And the “Anorexia, Grade 3 or 4, %” value ([1]; human, in vivo)?
A: 0.00%

Q: And the “Anorexia, Grade 3 or 4, No.” value ([1]; human, in vivo)?
A: 0

Q: What about the “Constipation, Any Grade, %” value ([1]; human, in vivo) of the same compound?
A: 13.04%

Q: And the “Constipation, Any Grade, No.” value ([1]; human, in vivo)?
A: 3

Q: And the “Constipation, Grade 3 or 4, %” value ([1]; human, in vivo)?
A: 0.00%

Q: What about the “Constipation, Grade 3 or 4, No.” value ([1]; human, in vivo) of the same compound?
A: 0

Q: And the “Decreased hemoglobin, Any Grade, %” value ([1]; human, in vivo)?
A: 43.48%

Q: And the “Decreased hemoglobin, Any Grade, No.” value ([1]; human, in vivo)?
A: 10
